Reference: US6946466B2, “Aromatic sulfonamides as peroxynitrite-rearrangement catalysts” (Schering AG, priority 2003, dated 2005)

What was measured:
[1] = Kinetics of the conversion of peroxynitrite into nitrate by UV spectrometry (stopped flow, 301 nm); type: biochemical; details: peroxynitrite rearrangement relative to spontaneous decomposition without catalyst; catalyst added in one-tenth the stoichiometric amount; UV 301 nm
Procedure: Measurement of the Kinetics of the Conversion of Peroxynitrite into Nitrate by UV Spectrometry
The following are used: a UV spectrometer • a stopped flow device with slotted-on cuvette laboratory apparatus for volumetric work reagents (buffers, peroxynitrite solution, catalysts)
The peroxynitrite content of the concentrated peroxynitrite solution is determined. A molar extinction coefficient of ε=1 670 is used as basis. The solution is diluted with water to reach an absorption of about 1.6 at the observation wavelength of 301 nm. The pH of the stock solution produced in this way should not fall below 11.
A solution of the catalyst to be investigated is prepared in phosphate buffer appropriate for the peroxynitrite concentration set, in such a way that, taking account of the given conditions in the stopped flow device, the desired amounts of catalyst solution and peroxynitrite can be brought together for reaction. The buffer of the catalyst solution must have sufficient capacity for it to be possible for the peroxynitrite solution, which is still strongly alkaline, to be adjusted to, and maintained at, the desired pH. The catalysts are added in one-tenth the stoichiometric amount (FIG. 1).
The metering syringes of the stopped flow system are charged with the two solutions and used to charge the cuvette which is present in the UV spectrometer. The absorptions at 301 nm are measured simultaneously. The rearrangement of peroxynitrite to nitrate results in the decrease in the absorption, which assumes a constant value after some time. The rearrangement is complete at this time, and the data recording is stopped.
The measured data are analyzed, and the peroxynitrite concentration can be calculated from the characteristic kinetic data of the plot resulting therefrom. […] In order to take account of the spontaneous decomposition of peroxynitrite, for each peroxynitrite preparation used initially the decomposition behavior of the peroxynitrite solution is found on addition of the buffer without catalyst content, and the relation between the characteristic data thereof and those obtained from a measurement with catalyst is found. [formula]

[2] = DHR oxidation assay (oxidation of dihydrorhodamine to rhodamine by peroxynitrite); type: biochemical; details: rhodamine fluorescence 485/520 nm, neutral pH
Procedure: Oxidation of Dihydrorhodamine to Rhodamine
The concentration of peroxynitrite is determined by reaction with dihydrorhodamine (DHR) to give rhodamine. The rhodamine fluorescence emission is measured at 520 nm after excitation with light of a wavelength of 485 nm. Catalytic conversion of peroxynitrite by a test substance leads to a decrease in the peroxynitrite concentration and thus also to a decrease in the rhodamine fluorescence, because less DHR can be converted into rhodamine. The search for peroxynitrite-degrading catalysts is carried out at neutral pH. Peroxynitrite is stable for only a few seconds at neutral pH. It is therefore necessary for peroxynitrite to be kept alkaline until contacted with the test substance and DHR as detection reagent. The search for catalysts takes place by rapid mixing of the following components:
10 μl of 10 μM DHR; • 100 μm diethylenetriaminepentaacetic acid in 75 mM Na phosphate buffer at pH 5.6
5 μl of peroxynitrite in 9 mM NaOH
0.75 μl test substance in 30% DMSO/H2O
The measurement takes place in a standard microtiter plate fluorescence measuring apparatus

[3] = test system: primary neuronal cultures from neonatal rat cerebellum; assay: SIN-1 damage assay with primary neuronal cultures from neonatal rat cerebellum (Cytotoxicity assay); type: cell-based; details: protection against SIN-1 damage, test substance 1 h before SIN-1, Alamar blue readout, read-out: Cytotoxicity assay ED50
Source text: SIN-1 Damage Assay with Primary Neuronal Cultures from Neonatal Rat Cerebellum
A primary culture of cells from neonatal rat cerebellum is set up for in vitro testing of substances for neuroprotection against damage induced by peroxy-nitrite. The measurement of cell death or survival of neurons in this culture takes place indirectly through a measurement of the conversion of the dye Alamar blue into its reduced fluorescent form. The peroxynitrite donor SIN-1 (3-morpholinosydnonimine) is used for the damage.
To obtain the cells, Wistar rats (P8) are sacrificed by decapitation, the cerebella are obtained, the meninges are removed from the cerebellum (HBSS (GIBCO, 14025-050) 4° C.), cut up and transferred into a 15 ml Falcon tube, the supernatant is aspirated off, and then the cerebella are trypsinized by adding 500 μl of trypsin/EDTA solution (GIBCO #2530-054)/cerebellum. After incubation (20 min, 37° C.), the trypsinized cerebella are washed 3× with 10 ml of HBSS. This is followed by tritration by addition of 500 μl of 0.05% strength DNAsel (BOEHRINGER MANNHEIM, #14953000) per cerebellum. Using a 5 ml pipette, then a flame-polished Pasteur pipette and finally (if necessary) a drawn-out flame-polished Pasteur pipette, the cells are isolated and mixed with 10 ml of complete medium (100 ml of Neurobasal (GIBCO #21103-049), 1 ml of B27 supplement (GIBCO #17504-044), 0.4 ml of pen/strep (10 000 IU/ml/10 000 UG/ml) (GIBCO #15140-160), 0.8 ml of KCl stock solution (MERCK, 1.04936.0500), 1 ml of L-glutamine (100×-200 mM) (GIBCO #15140-106). The isolated cells are then centrifuged (10 min at 600 rpm), washed 1× with complete medium and resuspended in 20 ml of complete medium, counted and diluted to 2×10^6 ml. 100 μl of complete medium are introduced into each well of a 96-well microtiter plate, and 100 μl of cell suspension are added (=day 1 in vitro). The microtiter plates are previously coated in the following way: 50 μl of poly-L-lysine (MW 70-105 kD) (SIGMA #P-6282) are applied to each well, and the plates are then incubated in an incubator for about 90 min. Before the cells are plated out, the solution is aspirated off again and washed 2× with HBSS and with sterile double-distilled water. 24 h after plating out, the cells are damaged by addition of SIN-1. Test substances are applied 1 h before addition of SIN-1 (single concentration of 10 or 30 μm, or as concentration series, CALBIOCHEM, 567028). Cell function is measured on day 2 (day2 in vitro) with Alamar blue (10 μl/well) (BIOSOURCE INT., DAL1100). Incubation for 3 hours is followed by measurement in a fluorescence reader (Victor, Wallac, extinction 544 nm/emission 590 nm). IC50 values are calculated by the Excel plug-in XLfit.

| Compound | IC50 [2] [µM] | Rate constant [1] | EC50 [3] [µM] |
| --- | --- | --- | --- |
| Cc1noc(C)c1S(=O)(=O)Nc1ccc(N2CCCC2)cc1 [Example 1, 3,5-dimethylisoxazole-4-sulfonic acid 4-pyrrolidin-1-ylphenylamide] | 1.1 | 1.1 | 4.4 |
| Cc1noc(C)c1S(=O)(=O)Nc1ccc(N2CCCC2)cc1C(F)(F)F [Example 2, 3,5-dimethylisoxazole-4-sulfonic acid 4-pyrrolidin-1-yl-2-trifluoromethylphenylamide] | 2.4 | 1.3 | 6.6 |
| O=S(=O)(Nc1ccc(N2CCCC2)cc1)c1cccc2cccnc12 [Example 6, quinoline-8-sulfonic acid 4-pyrrolidin-1-ylphenylamide] | 1.5 | 1.2 | 5.2 |
| CN(C)c1ccc(NS(=O)(=O)c2cccs2)c([N+](=O)[O-])c1 [Example 8, thiophene-2-sulfonic acid 4-dimethylamino-2-nitrophenylamide] | 1.6 | 1.6 | 6.4 |
| Cc1noc(C)c1S(=O)(=O)Nc1ccc(N(C)C)cc1[N+](=O)[O-] [Example 9, 3,5-dimethylisoxazole-4-sulfonic acid 4-dimethylamino-2-nitrophenylamide] | 2 | 1.6 | 8.6 |

Continued by falling IC50 [2], values first:

| IC50 [2] [µM] | Compound | Rate constant [1] | EC50 [3] [µM] |
| --- | --- | --- | --- |
| 8.1 | COc1cc(N2CCCC2)ccc1NS(=O)(=O)c1cccs1 [Example 5, thiophene-2-sulfonic acid 2-methoxy-4-pyrrolidin-1-ylphenylamide] | 1.9 | 5.9 |
| 1.9 | CN1CCN(c2ccc(NS(=O)(=O)c3cccs3)cc2)CC1 [Example 7, thiophene-2-sulfonic acid 4-(4-methyl-piperazin-1-yl)phenylamide] | 1.3 | 5.7 |
| 1.1 | O=S(=O)(Nc1ccc(N2CCCCC2)cc1)c1cccc2cccnc12 [Example 4, quinoline-8-sulfonic acid 4-piperidin-1-ylphenylamide] | 1.4 | 8.7 |
| 0.95 | Cc1noc(C)c1S(=O)(=O)Nc1ccc(N2CCCCC2)cc1 [Example 3, 3,5-dimethylisoxazole-4-sulfonic acid 4-piperidin-1-ylphenylamide] | 1.4 | 5.3 |
